Test: Antiproliferative activity against human A375P cells
Assay type: functional, cell-based

Going from `CC(=O)c1cccc(NC(=O)Nc2ccc(C)c(NC(=O)c3ccccc3)c2)c1` to `Cc1ccc(NC(=O)Nc2ccc(C)c(NC(=O)c3ccccc3)c2)cc1C`, the IC50 rises from 9.8 µM to greater than 30 µM.

Going from `CC(=O)Nc1cc(NC(=O)Nc2cc(C(F)(F)F)cc(C(F)(F)F)c2)ccc1C` to `CC(=O)Nc1cc(NC(=O)c2cc(C(F)(F)F)cc(C(F)(F)F)c2)ccc1C`, the IC50 rises from 0.685 µM to greater than 30 µM. The first is the more potent here.

First: CC(=O)Nc1cc(NC(=O)Nc2ccc(Cl)c(Cl)c2)ccc1C
Second: CC(=O)Nc1cc(NC(=O)Nc2ccc(Cl)c(C(F)(F)F)c2)ccc1C
The IC50 of the first is 1.9-fold higher: 2.1 µM for the first, 1.1 µM for the second.

`CC(=O)Nc1cc(NC(=O)c2ccc(Cl)c(C(F)(F)F)c2)ccc1C` and `Cc1ccc(NC(=O)c2ccc(Cl)c(C(F)(F)F)c2)cc1NC(=O)c1ccccc1` cannot be ordered by IC50: greater than 30 µM for the first, greater than 30 µM for the second.

First: Cc1ccc(NC(=O)Nc2cc(Cl)cc(Cl)c2)cc1NC(=O)c1ccccc1
Second: Cc1ccc(NC(=O)Nc2ccc(Cl)c(Cl)c2)cc1NC(=O)c1ccccc1
The IC50 of the first is 22-fold lower: 0.259 µM for the first, 5.8 µM for the second.

Compared with `Cc1ccc(NC(=O)Nc2ccccc2Cl)cc1NC(=O)c1ccccc1`, `Cc1ccc(NC(=O)Nc2ccc(Cl)nc2)cc1NC(=O)c1ccccc1` is lower in IC50: greater than 30 µM for the first, 1.6 µM for the second.

`CC(=O)Nc1cc(NC(=O)Nc2ccc(C)c(C)c2)ccc1C` and `CC(=O)Nc1cc(NC(=O)Nc2ccc3c(c2)OCO3)ccc1C` cannot be ordered by IC50: greater than 30 µM for the first, greater than 30 µM for the second.

`CC(=O)Nc1cc(NC(=O)c2cc(=O)c3ccccc3o2)ccc1C` and `Cc1ccc(NC(=O)c2cc(=O)c3ccccc3o2)cc1NC(=O)c1ccccc1` cannot be ordered by IC50: greater than 30 µM for the first, greater than 30 µM for the second.

First: Cc1ccc(NC(=O)Nc2cc(F)cc(C(F)(F)F)c2)cc1NC(=O)c1ccccc1
Second: Cc1ccc(NC(=O)Nc2cc(C(F)(F)F)cc(C(F)(F)F)c2)cc1NC(=O)c1ccccc1
The IC50 of the first is higher: greater than 30 µM for the first, 0.162 µM for the second. The second is the more potent here.

First: CC(=O)Nc1cc(NC(=O)Nc2cc(F)cc(C(F)(F)F)c2)ccc1C
Second: CC(=O)Nc1cc(NC(=O)Nc2cc(Cl)cc(Cl)c2)ccc1C
The IC50 of the first is higher: greater than 30 µM for the first, 0.561 µM for the second.

Compared with `CC(=O)Nc1cc(NC(=O)Nc2ccccc2Cl)ccc1C`, `CC(=O)Nc1cc(NC(=O)Nc2ccc(Cl)nc2)ccc1C` is lower in IC50: greater than 30 µM for the first, 1.1 µM for the second.

Going from `CC(=O)Nc1cc(NC(=O)Nc2cccc(C(C)=O)c2)ccc1C` to `CC(=O)Nc1cc(NC(=O)Nc2cccc(Oc3ccccc3)c2)ccc1C`, the IC50 rises from 22.1 µM to greater than 30 µM.

`Cc1cc(C(=O)Nc2ccc(C)c(NC(=O)c3ccccc3)c2)no1` and `CC(=O)Nc1cc(NC(=O)c2cc(C)on2)ccc1C` cannot be ordered by IC50: greater than 30 µM for the first, greater than 30 µM for the second.

`Cc1ccc(NC(=O)Nc2cccc(Oc3ccccc3)c2)cc1NC(=O)c1ccccc1` and `Cc1ccc(NC(=O)Nc2ccc3c(c2)OCO3)cc1NC(=O)c1ccccc1` cannot be ordered by IC50: greater than 30 µM for the first, greater than 30 µM for the second.

First: CNC(=O)c1cc(Oc2ccc(NC(=O)Nc3ccc(Cl)c(C(F)(F)F)c3)cc2)ccn1 [SORAFENIB]
Second: Cc1ccc(NC(=O)Nc2ccc(Cl)c(C(F)(F)F)c2)cc1NC(=O)c1ccccc1
The IC50 of the first is 2.1-fold higher: 2.7 µM for the first, 1.3 µM for the second. The second is the more potent here.

`Cc1ccc(NC(=O)c2cc(C(F)(F)F)cc(C(F)(F)F)c2)cc1NC(=O)c1ccccc1` and `Cc1ccc(NC(=O)c2ccc3c(c2)OCCO3)cc1NC(=O)c1ccccc1` cannot be ordered by IC50: greater than 30 µM for the first, greater than 30 µM for the second.

Compared with `CC(=O)Nc1cc(NC(=O)Nc2ccc3c(c2)OCCO3)ccc1C`, `CC(=O)Nc1cc(NC(=O)c2ccc3c(c2)OCCO3)ccc1C` is lower in IC50: greater than 30 µM for the first, 12.9 µM for the second. The second is the more potent here.

Work on `Cc1ccc(NC(=O)Nc2ccc3c(c2)OCCO3)cc1NC(=O)c1ccccc1` yielded an IC50 greater than 30 µM.

Test: Ratio of IC50 for vemurafenib IC50 to compound IC50 for human A375P cells
Assay type: functional

With `Cc1ccc(NC(=O)Nc2cc(C(F)(F)F)cc(C(F)(F)F)c2)cc1NC(=O)c1ccccc1` the “Ratio IC50” value was 1.57.
